47 compounds from patent US9688695B2, “Imidazothiadiazole and imidazopyrazine derivatives as protease activated receptor 4 (PAR4) inhibitors for treating platelet aggregation” (BRISTOL-MYERS SQUIBB COMPANY, priority 2012, dated 2017) can be followed below.

Sequence of PAR4 (Q96RI0 18-385): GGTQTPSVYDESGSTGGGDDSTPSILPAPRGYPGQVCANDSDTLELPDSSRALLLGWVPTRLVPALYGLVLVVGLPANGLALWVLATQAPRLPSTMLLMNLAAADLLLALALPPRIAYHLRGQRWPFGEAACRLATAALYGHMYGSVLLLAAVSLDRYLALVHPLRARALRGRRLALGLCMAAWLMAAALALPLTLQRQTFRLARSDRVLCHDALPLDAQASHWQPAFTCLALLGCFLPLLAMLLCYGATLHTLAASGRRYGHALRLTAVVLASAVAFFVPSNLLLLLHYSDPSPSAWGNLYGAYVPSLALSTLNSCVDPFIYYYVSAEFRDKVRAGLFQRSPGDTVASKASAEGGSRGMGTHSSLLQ

In this assay the target is PAR4 (Homo sapiens (Human), UniProt Q96RI0). Kind of assay: FLIPR assay in PAR4-expressing HEK293 cells (PAR4 antagonist activity, calcium mobilization). The class given is cell-based. The following applies: H-Ala-Phe(4-F)-Pro-Gly-Trp-Leu-Val-Lys-Asn-Gly-NH2-induced calcium mobilization. From the text:
The FLIPR assay is an exemplary in vitro assay for measuring the activity of the PAR4 antagonists of the present invention. In this assay, intracellular calcium mobilization is induced in PAR4 expressing cells by a PAR4 agonist and calcium mobilization is monitored. See, e.g., Example A.
HEK293 cells stably expressing PAR4 were generated by a standard method of transfection of human […] cDNA expression vector or by RAGE technology from Athersys Inc. (Cleveland, Ohio) and selected based on PAR4 protein expression of mRNA expression. […] These cells express endogenous PAR1 and can elicit calcium signal upon stimulation with PAR1 agonist peptide.
Counter screens for agonist activity and PAR1 antagonist activity were also performed. Briefly, HEK293 EBNA PAR4 clone 20664.1J cells were plated 24 hrs. prior to experiment in 384 well, Poly-D-Lysine coated, black, clear bottom plates (Greiner Bio-One, Monroe, N.C.). Cells were plated at 20,000 cells/well in […] growth medium and incubated at 37° C. with 5% CO2 overnight. At time of assay, media was replaced with 40 μl 1× Hank's Buffered Saline Solution (HBSS) (with 10 mM HEPES) and 20 μl test compound also diluted in 1×HBSS buffer was added at various concentrations and 0.67% DMSO final concentration on the FDSS for agonist measurement. The cells were then incubated for 30 minutes at room temperature followed by addition of 20 μl of agonist peptide for antagonist measurement on the FDSS.
As indicated above, the FLIPR assay, an in vitro assay, measures the PAR4 antagonist activity of compounds tested as described in Example A. The PRP assay, an in vitro assay, measures the PAR4 antagonist assay of the compounds tested in the presence of plasma proteins and thrombin agonist as described in Example C.
With `COc1cc(OCc2csc(-c3cccc(C)c3)n2)c2cc(-c3cn4nc(OC)sc4n3)oc2c1` [Example 12], the EC50 was found to be 1.3 nM.

With `COc1cc(OCc2nc(-c3ccccc3)sc2C)c2cc(-c3cn4nc(OC)sc4n3)oc2c1` [Example 13], the EC50 is 2.1 nM.

In the case of `COc1cc(OCc2csc(-c3ccc(F)cc3)n2)c2cc(-c3cn4nc(OC)sc4n3)oc2c1` [Example 15], the EC50 was determined as 0.98 nM.

For the compound `COc1cc(OCc2csc(-c3ccccc3Cl)n2)c2cc(-c3cn4nc(OC)sc4n3)oc2c1` [Example 16], the EC50 turned out to be 3.4 nM.

Take `COc1cc(OCc2csc(-c3cccc(C(F)(F)F)c3)n2)c2cc(-c3cn4nc(OC)sc4n3)oc2c1` [Example 17]: the EC50 was 1.1 nM.

On to `COc1cc(OCc2csc(-c3ccccc3OC)n2)c2cc(-c3cn4nc(OC)sc4n3)oc2c1` [Example 19], for which the concentration giving a half-maximal response (EC50) was determined as 1 nM.

As for `COc1cc(OCc2csc(C3CCCCC3)n2)c2cc(-c3cn4nc(OC)sc4n3)oc2c1` [Example 20], the half-maximal effective concentration (EC50) stood at 1.1 nM.

Turning to `COc1cc(OCc2csc(-c3ccc(F)cc3F)n2)c2cc(-c3cn4nc(OC)sc4n3)oc2c1` [Example 24], the 50% effective concentration (EC50) amounted to 1.1 nM.

On to `COc1cc(OCc2csc(-c3cccc(F)c3)n2)c2cc(-c3cn4nc(OC)sc4n3)oc2c1` [Example 25], for which the concentration for a half-maximal effect (EC50) was found to be 0.55 nM.

With `COc1cc(OCc2csc(-c3ccccc3F)n2)c2cc(-c3cn4nc(OC)sc4n3)oc2c1` [Example 26], the EC50 was found to be 1.8 nM.

With `COc1cc(OCc2csc(-c3ccc(Cl)cc3)n2)c2cc(-c3cn4nc(OC)sc4n3)oc2c1` [Example 27], the EC50 turned out to be 1.6 nM.

In the case of `COc1cc(OCc2csc(-c3ccc(OC(F)(F)F)cc3)n2)c2cc(-c3cn4nc(OC)sc4n3)oc2c1` [Example 29], the EC50 worked out at 1.4 nM.

In the case of `COc1cc(OCc2csc(-c3cccnc3)n2)c2cc(-c3cn4nc(OC)sc4n3)oc2c1` [Example 30], the EC50 was 0.65 nM.

Regarding `COc1cc(OCc2csc(N3CCC(F)(F)CC3)n2)c2cc(-c3cn4nc(OC)sc4n3)oc2c1` [Example 31], the EC50 is 0.59 nM.

`COc1cc(OCc2csc(-c3cnccn3)n2)c2cc(-c3cn4nc(OC)sc4n3)oc2c1` [Example 32]: the EC50 was 1.3 nM.

Take `COc1cc(OCc2csc(Br)n2)c2cc(-c3cn4nc(OC)sc4n3)oc2c1` [Example 35]: the concentration for a half-maximal effect (EC50) was 1.3 nM.

On to `COC(=O)c1ccc(-c2nc(COc3cc(OC)cc4oc(-c5cn6nc(OC)sc6n5)cc34)cs2)cc1` [Example 37, Methyl 4-(4-(((6-methoxy-2-(2-methoxyimidazo[2,1-b][1,3,4]thiadiazol-6-yl)benzofuran-4-yl)oxy)methyl)thiazol-2-yl)benzoate], for which the concentration for a half-maximal effect (EC50) worked out at 0.45 nM.

For the compound `COc1cc(OCc2csc(-c3ccc(C(=O)NC(C)(C)C)cc3)n2)c2cc(-c3cn4nc(OC)sc4n3)oc2c1` [Example 41, N-(tert-Butyl)-4-(4-(((6-methoxy-2-(2-methoxyimidazo[2,1-b][1,3,4]thiadiazol-6-yl)benzofuran-4-yl)oxy)methyl)thiazol-2-yl)benzamide], the EC50 was 0.9 nM.

Regarding `COc1cc(OCc2nc(-c3ccc(C(=O)N(C)C)cc3)sc2C(C)C)c2cc(-c3cn4nc(OC)sc4n3)oc2c1` [Example 42, 4-(5-Isopropyl-4-(((6-methoxy-2-(2-methoxyimidazo[2,1-b][1,3,4]thiadiazol-6-yl)benzofuran-4-yl)oxy)methyl)thiazol-2-yl)-N,N-dimethylbenzamide], the EC50 amounted to 2.5 nM.

Turning to `COc1cc(OCc2nc(-c3ccnc(F)c3)sc2C(C)C)c2cc(-c3cn4nc(OC)sc4n3)oc2c1` [Example 43, 6-(4-((2-(2-Fluoropyridin-4-yl)-5-isopropylthiazol-4-yl)methoxy)-6-methoxybenzofuran-2-yl)-2-methoxyimidazo[2,1-b][1,3,4]thiadiazole], the EC50 came out at 0.34 nM.

With `COc1cc(OCc2nc(-c3ccc(C(=O)OC(C)(C)C)cc3)sc2C)c2cc(-c3cn4nc(OC)sc4n3)oc2c1` [Example 45, tert-Butyl 4-(4-(((6-methoxy-2-(2-methoxyimidazo[2,1-b][1,3,4]thiadiazol-6-yl)benzofuran-4-yl)oxy)methyl)-5-methylthiazol-2-yl)benzoate], the EC50 was determined as 1.3 nM.

With `COc1cc(OCc2nc(-c3ccc(C(=O)O)cc3)sc2C)c2cc(-c3cn4nc(OC)sc4n3)oc2c1` [Example 46, 4-(4-(((6-Methoxy-2-(2-methoxyimidazo[2,1-b][1,3,4]thiadiazol-6-yl)benzofuran-4-yl)oxy)methyl)-5-methylthiazol-2-yl)benzoic acid], the EC50 is 2.4 nM.

`COc1cc(OCc2nc(-c3ccc(C(=O)NCC(F)(F)F)cc3)sc2C)c2cc(-c3cn4nc(OC)sc4n3)oc2c1` [Example 47, 4-(4-(((6-Methoxy-2-(2-methoxyimidazo[2,1-b][1,3,4]thiadiazol-6-yl)benzofuran-4-yl)oxy)methyl)-5-methylthiazol-2-yl)-N-(2,2,2-trifluoroethyl)benzamide]: the concentration for a half-maximal effect (EC50) came out at 0.77 nM.

Take `CNC(=O)c1ccc(-c2nc(COc3cc(OC)cc4oc(-c5cn6nc(OC)sc6n5)cc34)c(C)s2)cc1` [Example 49, 4-(4-(((6-Methoxy-2-(2-methoxyimidazo[2,1-b][1,3,4]thiadiazol-6-yl)benzofuran-4-yl)oxy)methyl)-5-methylthiazol-2-yl)-N-methylbenzamide]: the EC50 turned out to be 0.82 nM.

On to `COc1cc(OCc2csc(CC(C)C)n2)c2cc(-c3cn4nc(OC)sc4n3)oc2c1` [Example 50], for which the concentration giving a half-maximal response (EC50) was found to be 0.21 nM.

As for `COc1cc(OCc2csc(N3C[C@@H](C)O[C@@H](C)C3)n2)c2cc(-c3cn4nc(OC)sc4n3)oc2c1` [Example 51], the EC50 was found to be 0.26 nM.

`COc1cc(OCc2csc(N3CCSCC3)n2)c2cc(-c3cn4nc(OC)sc4n3)oc2c1` [Example 53]: the EC50 was found to be 0.52 nM.

Turning to `COc1cc(OCc2csc(N3CCS(=O)(=O)CC3)n2)c2cc(-c3cn4nc(OC)sc4n3)oc2c1` [Example 54], the concentration giving a half-maximal response (EC50) turned out to be 0.36 nM.

As to `COc1cc(OCc2csc(N3CC[S+]([O-])CC3)n2)c2cc(-c3cn4nc(OC)sc4n3)oc2c1` [Example 55], the 50% effective concentration (EC50) is 0.79 nM.

Turning to `COc1cc(OCc2csc(-c3ccc4c(c3)OCO4)n2)c2cc(-c3cn4nc(OC)sc4n3)oc2c1` [Example 57], the EC50 was determined as 0.67 nM.

Turning to `COc1cc(OCc2csc(CCC(F)(F)F)n2)c2cc(-c3cn4nc(OC)sc4n3)oc2c1` [Example 58], the EC50 amounted to 0.33 nM.

For the compound `COc1cc(OCc2csc(CCC3CC3)n2)c2cc(-c3cn4nc(OC)sc4n3)oc2c1` [Example 60], the EC50 was 0.38 nM.

Turning to `COc1cc(OCc2csc(-c3cccc(C#N)c3)n2)c2cc(-c3cn4nc(OC)sc4n3)oc2c1` [Example 61], the concentration giving a half-maximal response (EC50) worked out at 0.64 nM.

With `COc1cc(OCc2csc(-c3cccc(OC(C)=O)c3)n2)c2cc(-c3cn4nc(OC)sc4n3)oc2c1` [Example 62], the 50% effective concentration (EC50) amounted to 0.48 nM.

Regarding `COc1cc(OCc2csc(-c3cccc(O)c3)n2)c2cc(-c3cn4nc(OC)sc4n3)oc2c1` [Example 63], the EC50 turned out to be 0.63 nM.

Turning to `COc1cc(OCc2csc(-c3ccc(C#N)cc3)n2)c2cc(-c3cn4nc(OC)sc4n3)oc2c1` [Example 64], the concentration giving a half-maximal response (EC50) was found to be 2.3 nM.

For `COc1cc(OCc2nc(-c3ccc(C(=O)N(C)C)cc3)sc2C)c2cc(-c3cn4nc(OC)sc4n3)oc2c1` [Example 66], the EC50 stood at 0.75 nM.

In the case of `COc1cc(OCc2csc(-c3ccc(COC(C)=O)cc3)n2)c2cc(-c3cn4nc(OC)sc4n3)oc2c1` [Example 68], the EC50 stood at 0.49 nM.

Consider `COc1cc(OCc2csc(-c3ccc(CO)cc3)n2)c2cc(-c3cn4nc(OC)sc4n3)oc2c1` [Example 69], for which the EC50 turned out to be 0.23 nM.

As for `COc1cc(OCc2nc(-c3ccc(C(N)=O)cc3)sc2C)c2cc(-c3cn4nc(OC)sc4n3)oc2c1` [Example 70], the EC50 stood at 0.89 nM.

With `COc1cc(OCc2nc(-c3ccnc(F)c3)sc2C)c2cc(-c3cn4nc(OC)sc4n3)oc2c1` [Example 71], the half-maximal effective concentration (EC50) amounted to 0.46 nM.

For the compound `COc1cc(OCc2nc(-c3cccc(COC(C)=O)c3)sc2C)c2cc(-c3cn4nc(OC)sc4n3)oc2c1` [Example 76], the EC50 was 0.42 nM.

For `COc1cc(OCc2csc(-c3cccnc3F)n2)c2cc(-c3cn4nc(OC)sc4n3)oc2c1` [Example 78], the EC50 is 0.4 nM.

Turning to `COc1cncc(-c2nc(COc3cc(OC)cc4oc(-c5cn6nc(OC)sc6n5)cc34)cs2)c1` [Example 79], the EC50 came to 2.6 nM.

In the case of `COc1cc(OCc2csc(-c3cccnc3)n2)c2cc(-c3cn4nc(OC)sc4n3)oc2c1` [Example 82], the EC50 is 0.67 nM.

For `COc1cc(OC(C)c2csc(-c3ccccc3)n2)c2cc(-c3cn4nc(OC)sc4n3)oc2c1` (centres unmarked) [Example 83, 2-Methoxy-6-(6-methoxy-4-(1-(2-phenylthiazol-4-yl)ethoxy)benzofuran-2-yl)imidazo[2,1-b][1,3,4]thiadiazole], the EC50 is 1.1 nM.

With `COc1cc(OCc2nc(N3CCOCC3)sc2Cl)c2cc(-c3cn4nc(OC)sc4n3)oc2c1` [Example 84], the concentration for a half-maximal effect (EC50) came out at 0.97 nM.
